Source: patent US7235584B2, “Non-psychotropic cannabinoids” (Pharmos Corporation, priority 2000, dated 2007)

How the values were obtained:
[1] = system: MPTP-mouse model of Parkinson's disease; assay: MPTP model of Parkinson's disease, TH-IR neurons in SNpc; assay type: in vivo, C57/BL mice; details: seven days after MPTP
Protocol: MPTP-induced model of Parkinson's Disease (PD) in mice is used to evaluate the value of the novel PRS-211 compounds as therapeutic agents for PD.
The MPTP-mouse model of Parkinson's disease is used to test the efficacy of the compounds to prevent the onset of PD symptoms.
The protocol is based on Liberatore et al. (Liberatore, Jackson-Lewis, Vukosavic, Mandir, Vila , McAuliffe, Dawson, Dawson and Przedborski, Nature Medicine 5:1403–9, 1999).
The treatment groups are as follows: • Vehicle 5 ml/kg IP once just before MPTP administration. • Dexanabinol or analog 10 mg/kg IP once just before MPTP administration. • Dexanabinol or analog 20 mg/kg IP once just before MPTP administration. • Dexanabinol or analog 20 mg/kg IP once just before MPTP administration+additional dose 24 hours later.
Seven days after MPTP administration the mice were euthanized and their brains removed cut and stained using an antiserum to tyrosine hydroxylase (TH-IR), the rate limiting enzyme in monoamainergic neurons. Attention was focused on the Substantia nigra, pars compacta (SNpc), which are comprise of dompaminergic neurons that project to the striatum. It is these neurons that undergo degeneration in Parkinson's Disease. MPTP acts as a specific neurotoxin for these neurons, and the aim was to determine whether MPTP-induced nerve degeneration could be ameliorated by Dexanabinol at 10 (D-10), 20 (D-20) or 30 (D-30) mg/kg, or 2 injections of Dexanabinol at 20mg/kg (D-20×2) relative to vehicle alone (V).
The rescue effect of the various treatments was calculated by comparing the number of the TH-IR cells in each group relative to that in animals treated with MPTP alone, which was arbitrarily assigned a value of zero.

AMPA binding = AMPA binding to rat forebrain membranes
cannabimimetic activity = details: doses several thousand times higher than the ED50 of HU-210; cited from earlier work
transient MCAo in rats = assay: Transient middle cerebral artery occlusion (MCAo), infarct size evaluation; assay type: in vivo
From the text: The middle cerebral artery is the cerebral blood vessel most susceptible to stroke in humans. In animals, coagulation, permanent ligation or permanent placement of an occluding thread ink the artery produces a permanent focal stroke affecting the MCA territory. Transient ligation or occlusion results in transient focal stroke. Both transient and permanent focal strokes result in varying degrees of edema and infarction in the affected brain regions. The ability of compounds to reduce the volumes of edema and infarction is considered a measure of their potential as anti-stroke treatment.
• a. Male rats (8/treatment group) 320–380 gr. (Harlan Israel). • b. Halothane (Rhone Poulenc France) • c. Pentobarbitone (Pental Veterinary, CTS Israel). • d. Poly-L-Lysine (Sigma, USA). • e. Silk suture material 3-0 and 4-0. • f. Nylon (Polyamid) suture material 3-0. Four cm pieces were cut and positioned in a solution of 1% Poly-L-Lysine for 1 minute and dried in an oven (60 ° C.) for 60 minutes. The tip of each piece was rounded under a flame. • g. Saline (Teva Medical). • h. Blank cremophor ethanol cosolvent (Pharmos). • i. Dexanabinol in cremophor ethanol cosolvent 50 mg/ml. (Both Dexanabinol and its vehicle were diluted in saline prior to drug administration. • j. Analogs PRS-211,092, PRS-211,095, PRS-211,128 PRS-211,132 and PRS-211,220 in cremophor ethanol cosolvent, 50 mg/ml. • k. The analogs were diluted in saline prior to drug administration. Methods Transient MCAo
a. Surgical details of the MCAO method used for testing dexanabinol analogs, are presented in Belayev, et al., (Belayev, Busto, Weizhao, and Ginsberg, Stroke 26:2313–2319, 1995) which is incorporated herein in its entirety by reference.
b. Two hours after the start of MCAo, the animals were reanesthetized with halothane, the neck wound was re-opened and the nylon thread pulled out of the Internal carotid artery (ICA). The skin wound was then closed with 3-0 silk suture material and the animals allowed to recover from the anesthesia.
c. Three sets of animals were tested. In the first test immediately (2+0 hours) before thread removal the animals were injected IV with either analogs PRS 211,095, PRS 211,128, PRS 211,132, or Dexanabinol (PRS 211,007) each at a dosage of 5 mg/kg. One group of animals was treated with 5mi/kg vehicle alone. In another group, the animals subjected to “sham” operation, the suture was passed into the ICA, as described above, but immediately withdrawn. […] Laser Doppler Flow (LDF) determined the success of MCAo—a drop of more then 50% in cerebral blood flow was considered as a sign of successful MCAO. […]
A detailed investigation of neurological performance was carried out on the first, third and the 7th day after the MCAo. […] Animals were scored according to their performance: […]

PGE2 = assay: Inhibition of prostaglandin (PGE2) synthesis in LPS-stimulated macrophage cell cultures; assay type: cell-based
Protocol: The inhibitory effect of the new derivatives of Dexanabinol on prostaglandin synthesis is evaluated in macrophage cell cultures following LPS exposure to induce the inflammatory response. These assays are an indication of the anti-inflammatory activity of the individual analogs.
The inhibitory effect of Dexanabinol new analogs on prostaglandin synthesis was evaluated in macrophage cell cultures. Macrophages were seeded in a 24 well NUNC plates, and incubated with DMEM medium for 24 hours to allow attachment to plastic. The wells were vacuumed and a different new analog is added for 1 hour. Treatments are done in triplicates. Following, LPS was added for a duration of 3–24 extra hours, to induce the inflammatory response. The supernatants were collected and analyzed for PGE2 by enzyme immunoassay technique Biotrak kit (Amersham Pharmacia Biotech).

CCCCCCC(C)(C)c1cc(O)c2c(c1)OC(C)(C)[C@H]1CC=C(CO)CC21 (stereo partly drawn) [211,007-000, 1,1 dimethyl heptyl-(3S,4S)-7-hydroxy-Δ^6-tetrahydrocannabinol]
TH-IR SNpc (rescue effect relative to MPTP alone = 0) ([1]; 10 mg/kg IP): −7.85 | TH-IR SNpc (rescue effect relative to MPTP alone = 0) ([1]; 20 mg/kg IP): 28.52 | TH-IR SNpc (rescue effect relative to MPTP alone = 0) ([1]; 30 mg/kg IP): 22.73 | TH-IR SNpc (rescue effect relative to MPTP alone = 0) ([1]; 2 injections at 20 mg/kg): 8.5 | inhibition of AMPA binding (AMPA binding): unable to inhibit | cannabimimetic activity (in words) (cannabimimetic activity): inactive as a cannabimimetic

CCCCCCC(C)(C)c1cc(O)c2c(c1)OC(C)(C)C1CC=C(Cn3ccnc3)CC21.Cl (single isomer, unassigned; (+)) [211,095-000, (+)-(3S ,4S )-6,6-Dimethyl-(1,1-dimethylheptyl)-1-hydroxy-9-(imidazolomethyl)-6a,7,10,10a-tetrahydro-6H-dibenzo[b,d]pyran]
Behavioral/neurological outcome (transient MCAo in rats; posture and flexion reflex, days 1, 3, 7 after MCAo): fewer neurological deficits and recovered faster | Mortality rate (transient MCAo in rats; transient MCAo, 5 mg/kg IV at 2+0 hours): No mortality | reduction of infarct size (transient MCAo in rats; transient MCAo, one week after the ischemic insult): 60%

CCCCCCC(C)(C)c1cc(O)c2c(c1)OC(C)(C)[C@H]1CC=C(Cn3cccn3)C[C@H]21 [211,220-000, (+)-(3S,4S)-6,6-Dimethyl-(1,1-dimethylheptyl)-1-hydroxy-9-(pyrazolomethyl)-6a,7,10,10a-tetrahydro-6H-dibenzo[b,d]pyran]
inhibition at 10 µM (PGE2): 59%
